Test results from patent US7329498B2, “HPV CD8+ T-cell epitopes” (Genencor International, Inc., priority 2003, dated 2008).

Test system: naive human CD8+ T-cells
Assay: CD8+ I-MUNE® T-cell proliferation assay (tritiated thymidine incorporation, dendritic cells + CD8+ T-cells + anti-CD40)
Type: cell-based
Settings: HPV E7.16 9-mer peptides, 5 μg/ml, 45 donors, 1 μg/ml anti-CD40; positive response at least 2.95 times the background
Experimental: Fresh human peripheral blood cells were collected from humans of unknown exposure status to HPV. These cells were tested to determine antigenic epitopes in HPV 16 and 18, as described in Example 3.
Peripheral mononuclear blood cells (stored at room temperature, no older than 24 hours) were prepared for use as follows. PBMC's were isolated from buffy coat material by centrifuging over an underlay of Lymphoprep at 1000×g for 30 minutes. The interface layer was collected and washed and counted using the Cell-Dyn 3700 System (Abbott). Then, suspensions containing 10^8 PBMC's resuspended in 30 ml of AIM-V (Invitrogen) were prepared and then allowed to adhere to plastic T-75 culture flasks for two hours. The remainder of the cells were frozen at 5×10^7 cells/ml in 45% FCS (Gibco/BRL), 45% PBS w/o Ca & Mg (Mediatech), and 10% DMSO (Sigma). After the two hour PBMC incubation, non-adherent cells were removed from the flasks. The adherent cells were cultured in the flasks with 800 units/ml recombinant human GM-CSF (R&D Systems) and 100 units/ml recombinant human IL-4 (Endogen) at 37° C., 5% CO2. On day 5 of incubation, 50 units/ml recombinant human Il-1α (Endogen) and 0.2 units/ml recombinant human TNF-α were added to the cultures. Adherent and non-adherent dendritic cells were harvested, washed, and counted on day 7, following a one-hour treatment with […] mitomycin C (Sigma) and 10 mM EDTA.
Autologous CD8+ T-cells were prepared from frozen aliquots of PBMCs. After thawing and washing in DPBS, CD8+ T-cells were isolated using a commercially available CD8 negative selection kit (Dynal), according to the manufacturer's instructions. Cells were counted using the Abbott Cell-Dyn 3700 System. The purity obtained using these methods was generally found to be greater than 90%.
This Example describes the assay system used in the present invention. The basic test system is also referred to as the “I-MUNE®” assay system. The basic I-MUNE® assay system was modified as described herein to facilitate analysis of CD8+ T-cell responses. As described in greater detail below, the modifications used in the development of the present invention involved the use of CD8 negative selection beads on PBMC (i.e., instead of CD4). In addition, when CD8 cells were resuspended, […] of a 2 ug/ml anti-CD40 solution was added, before placing the DCs and peptides in the plates (the final concentration of anti-CD40 was 1 ug/ml); and 1 ul of 1 ug/ml PHA was used as a positive control, instead of tetanus toxoid.
In 96-well, round bottom plates, autologous dendritic cells and CD8+ T-cells were combined with test peptides. More specifically, in a volume of 100 μl/well, 2×10^4 dendritic cells in AIM V were combined with individual peptides (at a final peptide concentration of 5 μg/ml and a final DMSO concentration of 0.25%). After a one-hour incubation at 37° C., 5% CO2, 2×10^5 CD8+ T-cells with 2 μg/ml anti-CD40 (eBioscience; Clone 5C3 mouse IgG1, kappa) were added to the culture for a total volume of 200 μl and a final anti-CD40 concentration of 1 μg/ml per well. Negative control wells contained dendritic cells, CD8+ T-cells and 0.25% DMSO. Positive control wells contained dendritic cells, CD8+ T-cells (at the same concentrations as the test wells) and 0.25% DMSO with 5 μg/ml PHA (Sigma) (List). In some experiments, 1 ug/ml anti-IgG1 (eBioscience; Clone P3 mouse IgG1, kappa) was used as an isotype control for comparison purposes. Individual peptides were tested in duplicate or triplicate for each donor.
After 5 days of incubation at 37° C., 5% CO2, the cultures were pulsed with 0.25 μCi/well tritiated thymidine (Perkin Elmer). After a subsequent 24 hours of incubation, plates were harvested and assessed for incorporation of the tritiated thymidine (i.e., T-cell proliferation) using a Wallac Microbeta TriLux liquid scintillation counter (Perkin Elmer). Responses were averaged over the duplicate tests performed for each specimen. […]

Row | Sequence | Epitope Classification
1 | LLMGTLGIV [HPV E7.16 Peptide 82] | Minor (“Minor epitopes” are those that have a response rate that is at least twice the background value)
2 | MHGDTPTLH (human papillomavirus) [HPV E7.16 Peptide 1, 9-mer peptide of HPV16 E7] | Minor (“Minor epitopes” are those that have a response rate that is at least twice the background value)
3 | DTPTLHEYM (human papillomavirus) [HPV E7.16 Peptide 4, 9-mer peptide of HPV16 E7] | Moderate (“Moderate epitopes” are those epitopes that produce results that are at least two standard deviations above the mean or three times the background)
4 | MGTLGIVCP (human papillomavirus) [HPV E7.16 Peptide 84, 9-mer peptide of HPV16 E7] | Minor (“Minor epitopes” are those that have a response rate that is at least twice the background value)
5 | TPTLHEYML (human papillomavirus) [HPV E7.16 Peptide 5, 9-mer peptide of HPV16 E7] | Minor (“Minor epitopes” are those that have a response rate that is at least twice the background value)
6 | DEIDGPAGO (DEIDGPAGQ; human papillomavirus) [HPV E7.16 Peptide 36, 9-mer peptide of HPV16 E7] | Moderate (“Moderate epitopes” are those epitopes that produce results that are at least two standard deviations above the mean or three times the background)
7 | LMGTLGIVC (human papillomavirus) [HPV E7.16 Peptide 83, 9-mer peptide of HPV16 E7] | Minor (“Minor epitopes” are those that have a response rate that is at least twice the background value)
8 | DLYCYEQLN (human papillomavirus) [HPV E7.16 Peptide 21, 9-mer peptide of HPV16 E7] | Major (a “major epitope” is defined as having a response rate at least three standard deviations above the mean background response rate)
9 | LHEYMLDLQ (human papillomavirus) [HPV E7.16 Peptide 8, 9-mer peptide of HPV16 E7] | Minor (“Minor epitopes” are those that have a response rate that is at least twice the background value)
10 | DLLMGTLGI (human papillomavirus) [HPV E7.16 Peptide 81, 9-mer peptide of HPV16 E7] | Minor (“Minor epitopes” are those that have a response rate that is at least twice the background value)
11 | LEDLLMGTL (human papillomavirus) [HPV E7.16 Peptide 79, 9-mer peptide of HPV16 E7] | Minor (“Minor epitopes” are those that have a response rate that is at least twice the background value)
12 | IRTLEDLLM (human papillomavirus) [HPV E7.16 Peptide 76, 9-mer peptide of HPV16 E7] | Minor (“Minor epitopes” are those that have a response rate that is at least twice the background value)
13 | HEYMLDLQP (human papillomavirus) [HPV E7.16 Peptide 9, 9-mer peptide of HPV16 E7] | Minor (“Minor epitopes” are those that have a response rate that is at least twice the background value)
14 | EDLLMGTLG (human papillomavirus) [HPV E7.16 Peptide 80, 9-mer peptide of HPV16 E7] | Minor (“Minor epitopes” are those that have a response rate that is at least twice the background value)
15 | IVCPICSQK [HPV E7.16 Peptide 89] | Minor (“Minor epitopes” are those that have a response rate that is at least twice the background value)
16 | TLHEYMLDL (human papillomavirus) [HPV E7.16 Peptide 7, 9-mer peptide of HPV16 E7] | Minor (“Minor epitopes” are those that have a response rate that is at least twice the background value)
17 | GQAEPDRAH (human papillomavirus) [HPV E7.16 Peptide 43, 9-mer peptide of HPV16 E7] | Minor (“Minor epitopes” are those that have a response rate that is at least twice the background value)
18 | IVTFCCKCD (human papillomavirus) [HPV E7.16 Peptide 54, 9-mer peptide of HPV16 E7] | Minor (“Minor epitopes” are those that have a response rate that is at least twice the background value)

Same assay, conditions: HPV E7.18 9-mer peptides, 5 μg/ml, 58 donors, 1 μg/ml anti-CD40; positive response at least 2.95 times the background

Row | Sequence | Epitope Classification
19 | CKCEARIKL (human papillomavirus) [HPV E7.18 Peptide 66, 9-mer peptide of HPV18 E7] | Minor (“Minor epitopes” are those that have a response rate that is at least twice the background value)
20 | ARRAEPQRH (human papillomavirus) [HPV E7.18 Peptide 51, 9-mer peptide of HPV18 E7] | Minor (“Minor epitopes” are those that have a response rate that is at least twice the background value)
21 | PQNEIPVDL (human papillomavirus) [HPV E7.18 Peptide 17, 9-mer peptide of HPV18 E7] | Minor (“Minor epitopes” are those that have a response rate that is at least twice the background value)
22 | SFVCPWCAS (human papillomavirus) [HPV E7.18 Peptide 95, 9-mer peptide of HPV18 E7] | Minor (“Minor epitopes” are those that have a response rate that is at least twice the background value)
23 | RIKLVVESS (human papillomavirus) [HPV E7.18 Peptide 71, 9-mer peptide of HPV18 E7] | Minor (“Minor epitopes” are those that have a response rate that is at least twice the background value)
